# In patent US20260365628A1, “SUBSTITUTED 3,4-DIHYDROQUINOLINONE INHIBITORS OF TSHR” (Septerna, Inc., priority 2022, published 2026):
# Target: T1, hTSHR (Homo sapiens, UniProt P16473)
# T1 construct: expressed in transfected cells
# Assay: hTSHR TR-FRET cAMP Assay (inhibition of M22-stimulated cAMP production)
# Type: cell-based
# Details: not given
# Method in brief: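 Readout was a cAMP HTRF ratio of 655/620 nm after lysis, scaled between the EC80 M22 signal (0% inhibition) and no-agonist vehicle (100%). Frozen induced Expi293F-hTSHR cells saw test compounds (0.5% DMSO) for 15 min at 37 °C before 30 min of M22 stimulation at EC80.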
# T1 sequence (P16473 21-764): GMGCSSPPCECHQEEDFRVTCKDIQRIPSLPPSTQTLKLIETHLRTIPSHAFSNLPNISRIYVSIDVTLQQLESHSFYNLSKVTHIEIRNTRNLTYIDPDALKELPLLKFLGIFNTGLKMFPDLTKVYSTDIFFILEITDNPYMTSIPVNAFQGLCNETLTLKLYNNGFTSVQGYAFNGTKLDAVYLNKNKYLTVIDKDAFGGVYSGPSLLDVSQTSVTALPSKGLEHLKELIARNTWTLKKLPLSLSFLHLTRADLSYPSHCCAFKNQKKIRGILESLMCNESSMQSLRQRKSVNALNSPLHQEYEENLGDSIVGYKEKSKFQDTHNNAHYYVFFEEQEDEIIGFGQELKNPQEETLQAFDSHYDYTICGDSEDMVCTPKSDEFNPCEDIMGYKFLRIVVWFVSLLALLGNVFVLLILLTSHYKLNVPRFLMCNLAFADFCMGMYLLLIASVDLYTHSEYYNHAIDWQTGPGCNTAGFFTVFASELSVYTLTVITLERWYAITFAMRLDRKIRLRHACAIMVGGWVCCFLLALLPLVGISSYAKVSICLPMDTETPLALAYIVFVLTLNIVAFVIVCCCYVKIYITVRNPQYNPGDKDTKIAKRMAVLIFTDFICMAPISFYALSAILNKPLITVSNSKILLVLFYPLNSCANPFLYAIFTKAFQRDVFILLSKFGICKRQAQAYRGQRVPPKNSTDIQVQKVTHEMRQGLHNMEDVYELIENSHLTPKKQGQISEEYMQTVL
row,IC50 [µM],Structure (SMILES)
1,0.1 to 1,"C[C@@H](c1cccc(-c2ccccc2)c1)n1c(=O)cnc2cc(NC(=O)NC(C)(C)C)ccc21 [Example 112, (S)-1-(1-(1-([1,1′-biphenyl]-3-yl)ethyl)-2-oxo-1,2-dihydroquinoxalin-6-yl)-3-(tert-butyl)urea]"

# Same assay, conditions: Expi293F Inducible cells stably expressing hTSHR; cAMP HTRF; stimulated with EC80 of anti-TSHR antibody M22; 15 min compound preincubation, 30 min at 37° C.; read-out: Activity (IC50 bins)
row,IC50 [µM],Structure (SMILES)
1,< 0.1,"CC(C)(C)NC(=O)Nc1ccc2c(c1)ncc(=O)n2Cc1cccc(CCCC(F)(F)F)c1 [Example 93, 1-(tert-butyl)-3-(2-oxo-1-(3-(4,4,4-trifluoro-butyl)benzyl)-1,2-dihydro-quinoxalin-6-yl)urea]"
2,0.1 to 1,"CC(C)(C)NC(=O)Nc1ccc2c(c1)ncc(=O)n2Cc1cccc(CCCC(F)(F)F)n1 [Example 95, 1-(tert-butyl)-3-(2-oxo-1-((6-(4,4,4-trifluoro-butyl)pyri-din-2-yl)methyl)-1,2-dihydro-quinoxalin-6-yl)urea]"
3,0.1 to 1,"CC(C)(C)NC(=O)Nc1ccc2c(c1)ncc(=O)n2Cc1cccc2c1CCCO2 [Example 97, 1-(tert-butyl)-3-(1-(chroman-5-ylmethyl)-2-oxo-1,2-di-hydro-quinoxalin-6-yl)urea]"
4,0.1 to 1,"C[C@@H](c1cccc(C(F)(F)F)c1)n1c(=O)cnc2cc(NC(=O)NC(C)(C)C)ccc21 [Example 99, (S)-1-(tert-butyl)-3-(2-oxo-1-(1-(3-(trifluoromethyl)phenyl)ethyl)-1,2-dihydroquinoxalin-6-yl)urea]"
5,0.1 to 1,"C[C@@H](c1cc(Cl)cc(Cl)c1)n1c(=O)cnc2cc(NC(=O)NC(C)(C)C)ccc21 [Example 101, (S)-1-(tert-butyl)-3-(1-(1-(3,5-dichlorophenyl)ethyl)-2-oxo-1,2-dihydroquinoxalin-6-yl)urea]"
6,0.1 to 1,"C[C@@H](c1cccc(CC(F)(F)F)c1)n1c(=O)cnc2cc(NC(=O)NC(C)(C)C)ccc21 [Example 102, (S)-1-(tert-butyl)-3-(2-oxo-1-(1-(3-(2,2,2-trifluoroethyl)phe-nyl)ethyl)-1,2-dihydroquinoxalin-6-yl)urea]"
7,0.1 to 1,"C[C@@H](c1cccc(OC(F)(F)F)n1)n1c(=O)cnc2cc(NC(=O)NC3(C)CCC3)ccc21 [Example 106, (S)-1-(1-methylcyclobutyl)-3-(2-oxo-1-(1-(6-(trifluoromethoxy)pyri-din-2-yl)ethyl)-1,2-dihydroquinoxalin-6-yl)urea]"
8,0.1 to 1,"CC(C)CCc1cccc([C@H](C)n2c(=O)cnc3cc(NC(=O)NC(C)(C)C)ccc32)c1 [Example 107, (S)-1-(tert-butyl)-3-(1-(1-(3-isopentylphenyl)ethyl)-2-oxo-1,2-dihydroquinoxalin-6-yl)urea]"
9,0.1 to 1,"C[C@@H](c1cccc(OCCC(F)(F)F)c1)n1c(=O)cnc2cc(NC(=O)NC(C)(C)C)ccc21 [Example 109, (S)-1-(tert-butyl)-3-(2-oxo-1-(1-(3-(3,3,3-trifluoropropoxy)phenyl)ethyl)-1,2-dihydroquinoxalin-6-yl)urea]"
10,0.1 to 1,"C[C@@H](c1cccc(CCOC(F)(F)F)c1)n1c(=O)cnc2cc(NC(=O)NC(C)(C)C)ccc21 [Example 110, (S)-1-(tert-butyl)-3-(2-oxo-1-(1-(3-(2-(tri-fluoromethoxy)ethyl)phenyl)ethyl)-1,2-dihydroquinoxalin-6-yl)urea]"
11,> 1,"C[C@@H](c1cccc(OC2CCCC2)c1)n1c(=O)cnc2cc(NC(=O)NC(C)(C)C)ccc21 [Example 111, (S)-1-(tert-butyl)-3-(1-(1-(3-(cyclo-pentyloxy)phenyl)ethyl)-2-oxo-1,2-dihydroquinoxalin-6-yl)urea]"
12,> 1,"C[C@@H](c1cccc(C#CC(C)(C)O)c1)n1c(=O)cnc2cc(NC(=O)NC(C)(C)C)ccc21 [Example 113, (S)-1-(tert-butyl)-3-(1-(1-(3-(3-hydroxy-3-methylbut-1-yn-1-yl)phenyl)ethyl)-2-oxo-1,2-dihydroquinoxalin-6-yl)urea]"
13,0.1 to 1,"C[C@@H](c1cccc(OC2CCCCC2)c1)n1c(=O)cnc2cc(NC(=O)NC(C)(C)C)ccc21 [Example 115, (S)-1-(tert-butyl)-3-(1-(1-(3-(cyclohexyloxy)phenyl)ethyl)-2-oxo-1,2-dihydroquinoxalin-6-yl)urea]"
14,> 1,"C[C@@H](c1cccc(OCC2CCOCC2)c1)n1c(=O)cnc2cc(NC(=O)NC(C)(C)C)ccc21 [Example 117, (S)-1-(tert-butyl)-3-(2-oxo-1-(1-(3-((tetrahydro-2H-pyran-4-yl)methoxy)phenyl)eth-yl)-1,2-dihydroquinoxalin-6-yl)urea]"
15,> 1,"C[C@@H](c1cccc(CCCC(C)(C)O)c1)n1c(=O)cnc2cc(NC(=O)NC(C)(C)C)ccc21 [Example 118, (S)-1-(tert-butyl)-3-(1-(1-(3-(4-hydroxy-4-methylpentyl)phenyl)ethyl)-2-oxo-1,2-dihydroquinoxalin-6-yl)urea]"
16,> 1,"C[C@@H](c1cccc(CCN(C)C(=O)C(C)(C)O)c1)n1c(=O)cnc2cc(NC(=O)NC(C)(C)C)ccc21 [Example 120, (S)-N-(3-(1-(6-(3-(tert-butyl)ureido)-2-oxoquinoxalin-1 (2H)-yl)ethyl)phenethyl)-2-hydroxy-N,2-dimethylpropanamide]"
17,> 1,"C[C@@H](c1cccc(CCOCC(C)(C)O)c1)n1c(=O)cnc2cc(NC(=O)NC(C)(C)C)ccc21 [Example 121, (S)-1-(tert-butyl)-3-(1-(1-(3-(2-(2-hydroxy-2-methylpropoxy)ethyl)phenyl)ethyl)-2-oxo-1,2-dihydroquinoxalin-6-yl)urea]"
18,0.1 to 1,"C[C@@H](c1cccc2c1COCC2)n1c(=O)cnc2cc(NC(=O)NC(C)(C)C)ccc21 [Example 123, (S)-1-(tert-butyl)-3-(1-(1-(isochroman-8-yl)ethyl)-2-oxo-1,2-dihydroquinoxalin-6-yl)urea]"
19,0.1 to 1,"C[C@@H](c1cccc2c1CCC2)n1c(=O)cnc2cc(NC(=O)NC(C)(C)C)ccc21 [Example 125, (S)-1-(tert-butyl)-3-(1-(1-(2,3-dihydro-1H-inden-4-yl)ethyl)-2-oxo-1,2-dihydroquinoxalin-6-yl)urea]"

# More lines, now with the values behind:
row,Structure (SMILES),IC50 [µM]
1,"CC(C)(C)NC(=O)Nc1ccc2c(c1)ncc(=O)n2Cc1cccc(CC(F)(F)F)c1 [Example 94, 1-(tert-butyl)-3-(2-oxo-1-(3-(2,2,2-trifluoro-ethyl)benzyl)-1,2-dihydro-quinoxalin-6-yl)urea]",0.1 to 1
2,"CC(C)(C)NC(=O)Nc1ccc2c(c1)ncc(=O)n2Cc1cccc2c1OCCC2 [Example 96, 1-(tert-buty1)-3-(1-(chroman-8-ylmethyl)-2-oxo-1,2-dihydro-quinoxalin-6-yl)urea]",0.1 to 1
3,"C[C@@H](c1ccccc1)n1c(=O)cnc2cc(NC(=O)NC(C)(C)C)ccc21 [Example 98, (S)-1-(tert-butyl)-3-(2-oxo-1-(1-phenylethyl)-1,2-dihydroquinoxalin-6-yl)urea]",0.1 to 1
4,"C[C@@H](c1cccc(OC(F)(F)F)c1)n1c(=O)cnc2cc(NC(=O)NC(C)(C)C)ccc21 [Example 100, (S)-1-(tert-butyl)-3-(2-oxo-1-(1-(3-(trifluoromethoxy)phe-nyl)ethyl)-1,2-dihydroquinoxalin-6-yl)urea]",< 0.1
5,"C[C@@H](c1cccc(C(F)(F)F)n1)n1c(=O)cnc2cc(NC(=O)NC(C)(C)C)ccc21 [Example 103, (S)-1-(tert-butyl)-3-(2-oxo-1-(1-(6-(tri-fluoromethyl)pyridin-2-yl)ethyl)-1,2-dihydroquinoxalin-6-yl)urea]",0.1 to 1
6,"C[C@@H](c1cc(OC(F)(F)F)ccc1F)n1c(=O)cnc2cc(NC(=O)NC(C)(C)C)ccc21 [Example 104, (S)-1-(tert-butyl)-3-(1-(1-(2-fluoro-5-(trifluoromethoxy)phe-nyl)ethyl)-2-oxo-1,2-dihydroquinoxalin-6-yl)urea]",0.1 to 1
7,"C[C@@H](c1ccc(F)c(OC(F)(F)F)c1)n1c(=O)cnc2cc(NC(=O)NC(C)(C)C)ccc21 [Example 105, (S)-1-(tert-buty1)-3-(1-(1-(4-fluoro-3-(trifluoromethoxy)phe-nyl)ethyl)-2-oxo-1,2-dihydroquinoxalin-6-yl)urea]",< 0.1
8,"C[C@@H](c1cccc(CCCC(F)(F)F)c1)n1c(=O)cnc2cc(NC(=O)NC(C)(C)C)ccc21 [Example 108, (S)-1-(tert-butyl)-3-(2-oxo-1-(1-(3-(4,4,4-trifluorobutyl)phenyl)ethyl)-1,2-dihydroquinoxalin-6-yl)urea]",0.1 to 1
9,"C[C@@H](c1cccc(Oc2ccccc2)c1)n1c(=O)cnc2cc(NC(=O)NC(C)(C)C)ccc21 [Example 114, (S)-1-(tert-butyl)-3-(2-oxo-1-(1-(3-phenoxyphenyl)ethyl)-1,2-dihydroquinoxalin-6-yl)urea]",0.1 to 1
10,"C[C@@H](c1cccc(CCC(C)(C)O)c1)n1c(=O)cnc2cc(NC(=O)NC(C)(C)C)ccc21 [Example 116, (S)-1-(tert-butyl)-3-(1-(1-(3-(3-hydroxy-3-methylbutyl)phenyl)ethyl)-2-oxo-1,2-dihydroquinoxalin-6-yl)urea]",> 1
11,"C[C@@H](c1cccc(CCOc2cn[nH]c2)c1)n1c(=O)cnc2cc(NC(=O)NC(C)(C)C)ccc21 [Example 119, (S)-1-(1-(1-(3-(2-((1H-pyrazol-4-yl)oxy)ethyl)phenyl)ethyl)-2-oxo-1,2-dihydroquinoxalin-6-yl)-3-(tert-butyl)urea]",> 1
12,"C[C@@H](c1cccc(C(F)F)c1)n1c(=O)cnc2cc(NC(=O)NC(C)(C)C)ccc21 [Example 122, (S)-1-(tert-butyl)-3-(1-(1-(3-(difluoro-methyl)phenyl)ethyl)-2-oxo-1,2-dihydroquinoxalin-6-yl)urea]",0.1 to 1
13,"C[C@@H](c1cccc2c1CCOC2)n1c(=O)cnc2cc(NC(=O)NC(C)(C)C)ccc21 [Example 124, (S)-1-(tert-butyl)-3-(1-(1-(isochroman-5-yl)ethyl)-2-oxo-1,2-dihydroquinoxalin-6-yl)urea]",> 1
14,"C[C@@H](c1cccc2ccncc12)n1c(=O)cnc2cc(NC(=O)NC(C)(C)C)ccc21 [Example 126, (S)-1-(tert-butyl)-3-(1-(1-(isoquinolin-8-yl)ethyl)-2-oxo-1,2-dihydroquinoxalin-6-yl)urea]",> 1
